In PubChem BioAssay AID179 (DTP/NCI, 2004) one finds EC50, IC50 and outcome data, which are given here for 68 molecules.

Several values for one entry are separate records, joined by “and”; a condition that tells them apart may be missing. Identical values can stand only once. Activity calls are given as the source filed them.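 Rule for the calls: active = compounds giving half or more protection of infected cells from virus-caused growth loss, again on retest; inactive = the rest.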 Where a SMILES comes first, the peptide text is derived from it. The star is where a group is joined. Myristoyl = CCCCCCCCCCCCCC(=O)*

The assay concerns CEM cells HIV-1 protection, formazan growth assay. Put plainly: NCI AIDS Antiviral Assay. The settings on record: for IC50: measured here: growth of uninfected CEM cells. Put shortly: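 Protection of CEM cells against HIV-1 was scored from cell growth (soluble formazan) across five concentrations, with parallel uninfected cells. Lack of protection may reflect toxicity.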

The term EC50 denotes the concentration needed to bring the measured effect to its halfway point. One may read the IC50 as the concentration that inhibits the measured activity by half. The low end stands for greater potency in that assay, the high end for weaker potency in that assay.

With `COCN1C(=N)C(C(=O)OC(C)(C)C)=C2C=C(O)C=CC21C` (stereo not given), the EC50 is greater than 200 µM and the IC50 was determined as 1.45 µM.

As to `CC1OC(n2cc(C(F)(F)F)c(=O)[nH]c2=O)C=CC1O` (stereo not given), the EC50 was greater than 851 µM and the IC50 stood at 148 µM. The matching figures for `Oc1ccc(S)cc1CNc1ccccc1`: greater than 200 µM and 22.4 µM. For `CCCCNC(=S)/N=C/c1c(O)cc(C)oc1=O`, in that order: greater than 200 µM and greater than 200 µM.

For the molecule `N.N.N.N.N.NC(=O)[O-].[Co+3].[I-]`, the outcome was inactive. With `Cc1cc(S(=O)(=O)Nc2nc(N)nc(N3N=CCC3C)n2)c(SCC(=O)O)cc1Cl` (stereo not given), the EC50 is greater than 200 µM and the IC50 was greater than 200 µM. Consider `COc1ccc2c(n1)Sc1nc3ccccc3nc1N2`, for which the EC50 is greater than 200 µM and the IC50 was 24.5 µM. For `CCCCCCCCCCCCCC(=O)NCC(=O)NC(CO)C(=O)NC(CO)C(=O)NC(CCCCN)C(=O)NC(CO)C(=O)NC(CCCCN)C(=O)N1CCCC1C(=O)NC(CCCCN)C(=O)NC(CC(=O)O)C(=O)N1CCCC1C(=O)NC(CO)C(=O)NC(CCC(N)=O)C(=O)NC(CCCNC(=N)N)C(=O)NC(CCCNC(=N)N)C(=O)NC(CCCNC(=N)N)C(=O)NC(Cc1ccc(O)cc1)C(N)=O` (stereo not given) (Myristoyl-GSSKSKPKDPSQRRRY-NH2; configuration not given here), in that order: greater than 120 µM and greater than 120 µM. For `Cc1n[nH]c(=O)n1/N=C/c1ccncc1`, in that order: greater than 200 µM and 102 µM.

As to `CC1=CC2(C)C=C(C)C3(OC(c4ccccc4)=C(C#N)C3=N2)C1=O` (stereo not given), the EC50 is greater than 70.8 µM and the IC50 came to 34.7 µM. For `COC(=O)Nc1nc2ccccc2c(=O)[nH]1`, in that order: greater than 200 µM and greater than 200 µM. The matching figures for `NC(CS)=NCC1C2CC3CC(C2)CC1C3` (stereo not given): greater than 200 µM and 33.1 µM. With `COC1/C=C/OC2(C)Oc3c(C)c(O)c4c(O)c(c(/C=N/N5C(C)CN(Cc6ccc(C(C)(C)C)cc6)CC5C)c(O)c4c3C2=O)NC(=O)/C(C)=C\C=C\C(C)C(O)C(C)C(O)C(C)C(OC(C)=O)C1C` (stereo not given), the EC50 was greater than 200 µM and the IC50 was found to be 12.3 µM. Turning to `CCCCCCCCCCCCCCCCCCCCCCCCCCCCCC=C(c1cc(Cl)c(OC)c(C(=O)OC)c1)c1cc(Cl)c(OC)c(C(=O)OC)c1`, the EC50 is greater than 2.24 µM and the IC50 was greater than 2.24 µM. As to `O=C(CN1CCN(c2ccccc2)CC1)c1ccc2[nH]c(=O)oc2c1`, the EC50 was greater than 200 µM and the IC50 is greater than 200 µM. In the case of `CC(C)N1CC2CC(CN(C(=O)c3ccc(Cl)cc3)C2)C1`, the EC50 is greater than 427 µM and the IC50 was greater than 427 µM. As for `CN(CCO)c1nc(=O)c2c(n1C1OC(CO)C(O)C(O)C1O)CCCC2` (stereo not given), the EC50 was greater than 339 µM and the half-maximal inhibitory concentration (IC50) was greater than 339 µM. Consider `Cc1cc(=O)c2c([nH]1)c1c(c3[nH]c(C)cc(=O)c32)Oc2ccccc2O1`, for which the EC50 is greater than 129 µM and the IC50 is 93.3 µM. The matching figures for `O=C(O)CCCCCCCCCCCc1ccccc1`: greater than 200 µM and 18.6 µM.

In the case of `O=[N+]([O-])c1ccc(S(=O)(=O)NN=C2CCCCC2)cc1`, the EC50 is greater than 316 µM and the half-maximal inhibitory concentration (IC50) came to 178 µM.

With `CC(C)C1OC(=O)/C=C/C=C/C=C/C=C/C=C/CC(O)CC(O)CC(O)CC(O)CC(O)CC(O)CC(O)CC(O)/C=C/C1C` (stereo not given), the EC50 was greater than 200 µM and the IC50 was greater than 200 µM. The molecule `O=C(O)c1ccccc1C(=O)Cc1ccccc1` displayed a concentration giving a half-maximal response (EC50) greater than 200 µM and an IC50 greater than 200 µM. Turning to `Nc1ccc(/C=C\c2ccc([N+](=O)[O-])cc2S(=O)(=O)O)c(S(=O)(=O)O)c1`, the EC50 was greater than 200 µM and the IC50 is greater than 200 µM. In the case of `COc1ccc(C2C3=C(COC3=O)OC(C)(C)Oc3cc4c(cc32)OCO4)cc1OC` (stereo not given), the EC50 is greater than 200 µM and the concentration for half-maximal inhibition (IC50) came to 12.3 µM. For `CC(C)=CCN1CCCn2c(=S)[nH]c3cccc(c32)C1=O`, in that order: greater than 200 µM and greater than 200 µM. For `COc1cc2c(cc1OC)NCc1ccccc1NCc1cc(OC)c(OC)cc1NCc1ccccc1NC2`, in that order: greater than 200 µM and 107 µM. The matching figures for `O=C(Nc1ccc([N+](=O)[O-])cc1[N+](=O)[O-])C(=O)C(C(=O)c1ccc(Cl)c(Cl)c1)C1OC(=O)c2ccccc21` (stereo not given): greater than 89.1 µM and 28.8 µM. For `Cc1cccc(C)c1NC(=O)CCc1nc(=S)[nH][nH]1`, the EC50 was greater than 468 µM and the IC50 was greater than 468 µM. As to `O=C1c2cccc3cccc(c23)C(=O)N1c1nccs1`, the EC50 is greater than 50.1 µM and the IC50 is greater than 50.1 µM.

Take `CC(=O)CCC(=O)CC(O)(C(F)(F)F)C(F)(F)F`: the EC50 was greater than 200 µM and the 50% inhibitory concentration (IC50) turned out to be 33.1 µM. For `c1ccc(CC[P+](c2ccccc2)(c2ccccc2)c2ccccc2)cc1`, the EC50 is greater than 200 µM and the IC50 was 1.29 µM. The matching figures for `CSC1=N/C(=C\c2ccco2)C(=O)N1CN1CCOCC1`: greater than 200 µM and 39.8 µM.

On to `CCN(CC)CCCC(C)Nc1cc(-c2ccccc2)nc2ccc(OC)cc12` (stereo not given), for which the EC50 is greater than 363 µM and the 50% inhibitory concentration (IC50) was found to be 2 µM. Turning to `CC(C)CCCC(C)[C@H]1CC[C@H]2[C@@H]3CC[C@H]4C[C@@H](CCC=C(c5cc(Cl)c(OCc6ccc(B7OC(C)(C)C(C)(C)O7)cc6)c(C(=O)OCc6ccc(B7OC(C)(C)C(C)(C)O7)cc6)c5)c5cc(Cl)c(OCc6ccc(B7OC(C)(C)C(C)(C)O7)cc6)c(C(=O)OCc6ccc(B7OC(C)(C)C(C)(C)O7)cc6)c5)CC[C@]4(C)[C@H]3CC[C@]12C` (stereo not given in full), the EC50 is greater than 200 µM and the IC50 was greater than 200 µM. Take `CCCCCCCCCCCCCCCCN1CCCCCC1=O`: the EC50 was greater than 77.6 µM and the half-inhibitory concentration (IC50) was greater than 77.6 µM. For the molecule `C/C=C/C(=O)Oc1cccc2cccnc12`, the EC50 is greater than 251 µM and the concentration for half-maximal inhibition (IC50) turned out to be 1.51 µM. As for `COC(=O)CCC1CCc2c(OC)ccc(O)c2C1=O` (stereo not given), the outcome was inactive.

Consider `C=C1CN(C2=NCCO2)C1`, for which the EC50 is greater than 200 µM and the IC50 was greater than 200 µM. In the case of `CC(C)=C1C2C(C13C(=O)OC(C)(C)OC3=O)C2(C)C` (stereo not given), the EC50 is greater than 490 µM and the IC50 was greater than 490 µM.

Take `O=C1CSC(c2ccccc2)C1C(=O)c1ccc(NCc2nc3ccccc3[nH]2)cc1` (stereo not given): the EC50 was greater than 200 µM and the IC50 came to 8.71 µM. For `COC(=O)C1C23CC(=O)CC1(c1ccc4c(c1)OCO4)C2NC3=O` (stereo not given), in that order: greater than 398 µM and greater than 398 µM. Regarding `C=CCOc1cccc(C2(O)c3ccccc3C3=NCCCN32)c1` (stereo not given), the EC50 was greater than 200 µM and the IC50 is 37.2 µM.

On to `O=S1(=O)NNC(=NCc2ccc(Cl)c(Cl)c2)c2ccccc21`, for which the result was inactive.

As to `CNC(=O)CCNC(=O)CCC(=O)OC`, the EC50 was greater than 200 µM and the half-maximal inhibitory concentration (IC50) was greater than 200 µM. In the case of `CCOC(=O)NNC(=O)NC12CC3CC(CC(C3)C1)C2`, the outcome was inactive.

As for `O=C(O)c1ccccc1-c1c2cc(Br)c(=O)c(Br)c-2oc2c(Br)c(O)c(Br)cc12`, the EC50 is greater than 200 µM; the IC50 is 21.9 µM and 35.5 µM.

With `Cc1ccccc1C1(Br)C(=O)c2ccccc2C1=O`, the EC50 was greater than 200 µM and the IC50 amounted to 33.9 µM. For `CCOC(=O)c1nnsc1NC(=O)Nc1ccc(Cc2ccc(NC(=O)Nc3snnc3C(=O)OCC)cc2)cc1`, in that order: greater than 200 µM and greater than 200 µM. For `Cc1c(CC#N)cc(C)c2c3c([nH]c12)-c1ccccc1CC3`, in that order: greater than 26.3 µM and 19.1 µM. Regarding `COC(=O)c1nn(C(=N)c2ccc(Cl)cc2)c2c1CCCCC2`, the EC50 was greater than 380 µM and the half-inhibitory concentration (IC50) is greater than 380 µM.

For the molecule `O=C(O)/C=C/c1ccc(/C=C/C(=O)O)cc1`, the EC50 was greater than 200 µM and the IC50 was greater than 200 µM. Regarding `CC1=C(C(=O)N[C@@H](CC(C)C)C(=O)O)N2C(=O)[C@@H](NC(=O)C(N)c3ccccc3)[C@H]2SC1` (stereo not given in full), the EC50 was 117 µM and the IC50 was greater than 200 µM. In the case of `CCOC(=O)c1cc(/C=C/C(C)=C/C(=O)OC)oc1-c1ccccc1`, the outcome was inactive. `CC(=NNC(=S)Nc1ccccc1C)c1cccc(C(C)=NNC(=S)Nc2ccccc2C)n1`: the EC50 is greater than 200 µM and the IC50 was determined as 110 µM. Turning to `NC(=S)N1N=C2CCCCCC[C@@H]2[C@H]1c1ccccc1`, the result was inactive. For the molecule `O=C(O)CCN(CCCN(CCC(=O)O)CCC(=O)O)CCC(=O)O`, the EC50 was greater than 575 µM and the IC50 was 8.13 µM.

Regarding `Nc1nc(Cl)cc(NCC2(O)CCCC2)n1`, the EC50 is greater than 200 µM and the IC50 worked out at 166 µM.

For the molecule `C/C(=N\N=C(N)N)C(CN(C)C)C(c1ccccc1)c1c(O)c2ccccc2oc1=O` (stereo not given), the EC50 was greater than 40.7 µM and the 50% inhibitory concentration (IC50) amounted to 17.4 µM. For `O=C(/C=C/c1c(O)c2ccccc2[nH]c1=O)CC(=O)C(=O)Nc1cccc(O)c1`, in that order: greater than 174 µM and greater than 174 µM.

On to `COC1(OC)C2(Cl)C(Cl)=C(Cl)C1(Cl)C1C2C2CC1(C(=O)O)c1ccccc12` (stereo not given), for which the EC50 is greater than 251 µM and the half-inhibitory concentration (IC50) was 13.5 µM. The matching figures for `C/C(=N\NC(=S)NC(C)(C)C)c1ccccn1`: greater than 200 µM and 0.0631 µM. For `CC(C)(C)OC(=O)NC12C3C4C1C1C2C3C41NC(=O)OC(C)(C)C` (stereo not given), in that order: greater than 200 µM and 53.7 µM. The matching figures for `O=C(c1ccc(Cl)cc1)N(C(=O)N1CCC(c2ccccc2)CC1)c1ccccc1`: greater than 200 µM and 11.2 µM.

As for `Cc1ccc(-n2c(=O)c3nn4c(=O)n(-c5ccc(C)cc5)c(=O)c4nn3c2=O)cc1`, the EC50 is greater than 200 µM and the IC50 is greater than 200 µM. Take `CCNC(=S)NNC(=O)c1csc(NC(=S)NC2CCCCC2)n1`: the EC50 is greater than 200 µM and the IC50 came out at 6.61 µM.

For the molecule `COc1ccc2oc(=S)[nH]c2c1`, the EC50 was greater than 200 µM and the IC50 was greater than 200 µM. On to `O=c1/c(=C/c2ccccn2)sc2nc3cc4c(cc3n12)OCCO4`, for which the EC50 is greater than 200 µM and the IC50 was greater than 200 µM.

In turn, `O=C(O)/C=C/c1c2ccc(=O)cc-2oc2cc(O)ccc12` returned an EC50 greater than 200 µM and an IC50 of 28.8 µM.
